The values below come from US20090118310A1, “Activated Cdc42-associated kinase (ACK) as a therapeutic target for Ras-induced cancer” (UNIVERSITY OF MEDICINE AND DENTISTRY OF NEW JERSEY, priority 2005, published 2009).

The target in assay [1] is T1, ACK-1 (Mus musculus, UniProt O54967).
T1 construct: endogenous in cells; host or cells: v-Ha-Ras-transformed NIH 3T3 cells (and parental NIH 3T3 in the siRNA experiment)
Kind of assay: ACK-1 autophosphorylation in v-Ha-Ras-transformed cells (immunoprecipitation, anti-phosphotyrosine Western blot). Type of assay: cell-based. The following applies: 25 μmol/L, 48 hours, FIG. 5A. As for the experimental part:
For immunoprecipitation, cells (2×10^6 per sample) were lysed in a buffer containing 1% Triton X-100, 20 mmol/L HEPES (pH 7.4), 150 mmol/L NaCl, 10% glycerol, 1.5 mmol/L MgCl2, 1 mmol/L EGTA, 10 mmol/L sodium pyrophosphate, 0.2 mmol/L sodium orthovanadate, 50 mmol/L NaF, 0.5 mg/mL phenylmethylsulfonyl fluoride, and 0.5 μg/mL aprotinin. Each lysate was incubated with ACK-1 antibody (10 μg/sample) for 4 hours at 4° C. Protein A-Sepharose CL-4B (50 μL) was added to the lysate followed by additional incubation for 2 hours at 4° C. Sepharose beads were collected by centrifugation at 1,000×g for 5 minutes (Eppendorf microfuge). The pellets were washed thrice with lysis buffer using the same protocol. Protein bound to Sepharose beads was recovered in Laemmli SDS sample buffer. […]
To study the effects of ACK on cell proliferation, 2×10^4 cells per well were seeded into 24-well plates and cultured under standard cell culture conditions. […] Cell numbers were counted with a hemocytometer. […]
The effect of PD158780 and PD157432 on the phosphorylation of ACK-1 was investigated. v-Ha-Ras-transformed cells were cultured in DMEM containing 10% FCS. […] For growth inhibition studies, cells were trypsinized and counted every 24 hours. […]
On the technique in general: In western blotting, separated proteins are transferred to a membrane and probed.

For assay [2], the system named is v-Ha-Ras-transformed NIH 3T3 cells. Kind of assay: Growth of v-Ha-Ras-transformed cells treated with kinase inhibitors (cell counting). Type of assay: cell-based. The following applies: kinase inhibitor added after overnight culture; cells counted (every 24 hours or after 48 hours). As for the experimental part:
To study the effects of ACK on cell proliferation, 2×10^4 cells per well were seeded into 24-well plates and cultured under standard cell culture conditions. After overnight culture, individual kinase inhibitors (at indicated concentration) or DMSO (control) were added to the culture. Cells were collected by trypsinization after 48 hours. Cell numbers were counted with a hemocytometer. To study ACK phosphorylation, cells were lysed with a buffer containing 1% Triton X-100, 20 mmol/L HEPES (pH 7.4), 150 mmol/L NaCl, 10% glycerol, 1.5 mmol/L MgCl2, 1 mmol/L EGTA, 10 mmol/L sodium pyrophosphate, 0.2 mmol/L sodium orthovanadate, 50 mmol/L NaF, 0.5 mg/mL phenylmethylsulfonyl fluoride, and 0.5 μg/mL aprotinin. Total protein (˜1 mg) was used for immunoprecipitation of ACK-1.
The effect of PD158780 and PD157432 on the phosphorylation of ACK-1 was investigated. v-Ha-Ras-transformed cells were cultured in DMEM containing 10% FCS. Cells were treated with solvent (DMSO), PD 158780 (25 μmol/L), or PD157432 (25 μmol/L) for 48 hours. Cells were incubated under standard cell culture conditions. […] For growth inhibition studies, cells were trypsinized and counted every 24 hours. […]
The effect of ST021169 and ST038325 on v-Ha-Ras-transformed NIH 3T3 cell growth was investigated. […] After 48 hours, the cells were trypsinized and counted with a hemocytometer. […]

For assay [3], the target named is T2, ACK-1 kinase (GST-ACKD, amino acids 101-441) (Homo sapiens, UniProt Q07912).
T2 construct: made in house; host or cells: Escherichia coli BL21 (pGEX-2TH vector)
T2 sequence (Q07912 38-378 H250G): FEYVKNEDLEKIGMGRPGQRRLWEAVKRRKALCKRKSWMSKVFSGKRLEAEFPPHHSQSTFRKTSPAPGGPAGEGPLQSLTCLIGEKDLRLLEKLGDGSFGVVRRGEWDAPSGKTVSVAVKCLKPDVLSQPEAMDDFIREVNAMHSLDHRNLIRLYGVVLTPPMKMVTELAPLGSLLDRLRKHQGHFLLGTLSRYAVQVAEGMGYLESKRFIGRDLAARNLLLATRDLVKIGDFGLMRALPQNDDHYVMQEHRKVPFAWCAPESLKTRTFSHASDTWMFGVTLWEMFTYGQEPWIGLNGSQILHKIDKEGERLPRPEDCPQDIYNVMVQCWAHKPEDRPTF
Kind of assay: In vitro kinase assay of GST-ACKD with MBP as substrate. Type of assay: biochemical. The following applies: FIG. 4C dose response, FIG. 4D inhibitors at 200 nmol/L. As for the experimental part: Escherichia coli BL21 cells transformed with pGEX-ACKD were grown at 30° C. to early logarithmic phase and protein expression was induced by adding 0.1 mmol/L isopropyl-L-thio-β-D-galactopyranoside. After 3 hours of incubation, cells were harvested, resuspended in lysis buffer [50 mmol/L Tris (pH 7.5), 0.73 mol/L sucrose, 5 mmol/L MgCl2, 0.5% (v/v) NP40], and disrupted by sonication. Cells were centrifuged at 10,000×g for 30 minutes at 4° C. The supernatant was applied to the glutathione-Sepharose column equilibrated with WED buffer [20 mmol/L Tris (pH 7.5), 2 mmol/L MgCl2, 1 mmol/L DTT] followed by washing with WED buffer. GST-ACKD was eluted with 5 mmol/L glutathione solution in 50 mmol/L Tris (pH 9.6). The eluate was dialyzed in WED buffer overnight and concentrated on a sucrose gradient. The expected size of the fusion protein (GST-ACKD) was confirmed by SDS-PAGE (data not shown), and the protein was used for kinase assays as described below.
The purified GST-ACKD (˜5 μg per reaction) was incubated in kinase reaction buffer [50 mmol/L HEPES-KOH (pH 7.2), 10 mmol/L magnesium acetate, 5 mmol/L DTT] containing 7.5 μg MBP, 100 μmol/L ATP, and 4 μCi [γ-^33P]ATP for 10 minutes at 30° C. Reactions were stopped by addition of 5× Laemmli SDS sample buffer. Proteins were separated by SDS-PAGE, and radioactivity incorporated into the substrate was quantified by using the Kodak Imaging Station 2000R. For kinase inhibition experiments, GST-ACKD was preincubated with individual inhibitors in kinase buffer or kinase buffer alone (control) before the addition of MBP following the same protocol as described above. Experiments were done in triplicate.
Several compounds were screened to examine their potency in inhibiting the kinase activity of ACK in vitro. […]
Different kinase inhibitors were added to the ACK-1 kinase reaction as described above in General Procedures. Phosphorylation of MBP was determined by SDS-PAGE and autoradiography. The level of MBP phosphorylation was determined by scanning MBP bands using Kodak Imaging Station 2000R and plotted as arbitrary units. […]

Each structure is given as a SMILES string. Entries after “also recorded” stand apart in the source; their conditions may differ.

T1 sequence (O54967 whole entry): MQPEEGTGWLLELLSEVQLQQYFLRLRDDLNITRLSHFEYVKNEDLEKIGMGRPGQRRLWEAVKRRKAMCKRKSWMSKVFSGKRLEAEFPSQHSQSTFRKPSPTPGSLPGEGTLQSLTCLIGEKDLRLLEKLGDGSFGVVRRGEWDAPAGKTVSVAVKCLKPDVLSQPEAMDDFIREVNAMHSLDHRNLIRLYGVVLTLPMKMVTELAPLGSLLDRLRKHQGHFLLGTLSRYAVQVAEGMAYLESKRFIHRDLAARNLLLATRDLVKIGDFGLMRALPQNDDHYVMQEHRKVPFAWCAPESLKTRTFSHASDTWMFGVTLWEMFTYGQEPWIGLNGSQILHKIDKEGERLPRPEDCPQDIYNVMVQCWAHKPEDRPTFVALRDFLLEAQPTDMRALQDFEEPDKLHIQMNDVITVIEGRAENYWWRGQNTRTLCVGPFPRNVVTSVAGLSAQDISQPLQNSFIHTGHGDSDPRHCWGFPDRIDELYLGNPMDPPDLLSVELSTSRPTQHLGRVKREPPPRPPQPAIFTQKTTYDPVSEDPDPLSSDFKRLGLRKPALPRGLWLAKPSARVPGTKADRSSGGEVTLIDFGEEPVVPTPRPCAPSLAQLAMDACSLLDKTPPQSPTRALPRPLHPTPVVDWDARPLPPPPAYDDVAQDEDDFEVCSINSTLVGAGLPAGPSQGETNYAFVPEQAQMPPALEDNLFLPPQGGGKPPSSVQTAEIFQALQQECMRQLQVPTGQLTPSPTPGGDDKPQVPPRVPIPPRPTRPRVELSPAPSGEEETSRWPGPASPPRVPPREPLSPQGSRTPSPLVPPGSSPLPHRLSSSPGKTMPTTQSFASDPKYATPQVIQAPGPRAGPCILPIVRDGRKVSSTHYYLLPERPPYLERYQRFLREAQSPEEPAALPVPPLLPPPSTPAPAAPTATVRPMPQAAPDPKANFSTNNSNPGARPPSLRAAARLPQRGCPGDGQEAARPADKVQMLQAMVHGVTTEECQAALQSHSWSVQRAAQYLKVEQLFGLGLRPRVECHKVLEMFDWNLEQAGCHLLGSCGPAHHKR

`CNc1cc2c(Nc3cccc(Br)c3)ncnc2cn1` [PD158780]: the “inhibition of ACK-1 autophosphorylation” value in assay [1] is listed as “inhibited ACK-1 autophosphorylation to a much stronger extent than did PD157432”. Further, the “inhibition of v-Ha-Ras-transformed NIH 3T3 cell growth” value in assay [2] is “inhibited in a dose-dependent manner”. In addition, in assay [3], the “inhibition of kinase activity of ACK (MBP phosphorylation)” value was “inhibited ACK strongly and in a dose-dependent manner; also recorded: strongest inhibitory activity”.
